Results: patent US10627415B2, “Compositions and methods for diagnosing, monitoring, and treating an autoimmune disease” (BOARD OF TRUSTEES OF MICHIGAN STATE UNIVERSITY, priority 2015, dated 2020)
“And” between values parts separate entries of the source, which are not always exact repeats. Identical values can stand only once.

Legend:
RBCs [1] = assay: C-peptide binding to RBCs (Example 1, supernatant subtraction); assay type: cell-based; conditions: RBCs of individual healthy controls; 20 picomoles human C-peptide, 75 micromolar albumin, 2 hours
Procedure: The amount of C-peptide binding to RBCs obtained from MS patients was compared to controls run on the same day. All samples were handled in an identical manner. Briefly, about 10 mL of blood were drawn from each donor; the RBCs were purified by centrifugation. Next, 20 picomoles of human C-peptide were added to a buffer containing 75 micromolar albumin. RBCs were added to this C-peptide and albumin-containing buffer and allowed to incubate for 2 hours. Next, the samples were centrifuged and the moles of C-peptide remaining in the supernatant are subtracted from the original amount added. This provided a value corresponding to the moles of C-peptide bound to the RBCs. […] Importantly, of the 25 MS patient samples analyzed, the values ranged from 2.7 to 4.8 picomoles of C-peptide bound to the RBCs, with 18 of the 25 above 3.2 picomoles. In comparison, one control was 3.1, another was 2.8; all others were below 2.45. Thus, separation exists between groups—approximately […] of bound C-peptide difference.

RBCs [2] = assay: C-peptide binding to RBCs, ELISA of supernatant (Example 2 protocol; hematocrit and storage variations); assay type: cell-based, human; conditions: for average C-peptide bound to the RBCs: 7% hematocrit, 20 nM C-peptide, 75 μM BSA (0.5%), 2 hours at 37° C.
Procedure: All samples were handled in an identical manner. Briefly, about 10 mL of blood was drawn from each donor; the RBCs were purified by centrifugation; and the RBCs were suspended in physiological salt solution (PSS). Then RBCs were combined with PSS (containing bovine serum albumin (BSA) as a C-peptide binding facilitator) and C-peptide to generate a mixture having a 7% hematocrit, 20 nM C-peptide, and 75 μM BSA (0.5%). The mixture was allowed to incubate for 2 hours at 37° C. Next, the samples were centrifuged to separate the cells from solution, the solution was diluted 1:50 with double distilled water, and the amount of C-peptide remaining in the solution was determined by ELISA. This provided a value corresponding to the moles of C-peptide bound to the RBCs. […] Whereas blood from the healthy controls bound an average of 1.99±0.32 pmoles C-peptide, blood from MS patients and OND patients bound averages of 3.51±0.59 pmoles of C-peptide and 2.23±0.51 pmoles of C-peptide, respectively. As shown by p values of less than 0.001, the increase in C-peptide binding relative to healthy controls and OND patients is significant.
Experiments were performed to determine the effect of hematocrit on C-peptide binding to RBCs. The experiment was conducted as described above in Experiment 2, except various hematocrits were tested. […] In general, increase the hematocrit results in a substantially linear increase in C-peptide binding when the RBCs are saturated with C-peptide.
Experiments were performed to determine the stability of the whole blood. The experiment was conducted as described above in Experiment 2, except the blood was stored in citrate tubes at 4° C. over a period of 4 days during the experiment. Only blood from healthy patients was tested.
(§1) Experiments were performed to determine the stability of supernatant generated after separating cells from solution as described in Experiment 2. The protocol of Experiment 2 was repeated on blood from healthy patients, but the supernatant was stored at 4° C. for from 1 to 3 days prior to determining C-peptide binding by the RBCs.
as §1, with “−20°” for “4°”, “C.” for “C. for”, “0 (day of draw)” for “1”, “6 weeks” for “3 days”

[3] = test system: Neutrophils from healthy control patients; assay: C-peptide binding to neutrophils; assay type: cell-based, human; conditions: 20 nM C-peptide, 1 hour at 37° C.
Procedure: Neutrophils from healthy control patients were also tested. The neutrophils were isolated using techniques known in the art. Briefly, blood was drawn into a heparin-coated vacutainer. An equal volume of 3% Dextran was added to drawn whole blood in sterile 50 mL tubes. After inverting, the tubes were set upright for 30 minutes at room temperature to generate a plurality of layers. The top layer was aspirated and transferred to a new 50 mL tube and centrifuged at 500 g for 10 minutes at 4° C. The resulting top layer was discarded. The resulting pellet was resuspended in 10 mL 0.9% saline. After pooling suspensions together in a single tube, it was underplayed with 10 mL of hypaqu-ficoll and centrifuged at 800 g for 15 minutes at room temperature. The resulting liquid band was removed and the remainder was resuspended in 20 mL 0.2% saline and mixed. 20 mL of 1.6% saline was then added to the suspension and it was centrifuged at 250 g for 6 minutes at 4° C. The supernatant was removed and the pellet was suspended in PBS for use in experiments. The cells were counted and then incubated with 20 nM C-peptide for 1 hour at 37° C. to generate an incubated sample. The incubated sample was centrifuged and the amount of C-peptide in the supernatant was determined by ELISA. The neutrophils were determined to have bound 2.68 attomoles of C-peptide per neutrophil.

[4] = test system: bovine pulmonary artery endothelial cells; assay: C-peptide binding to endothelial cells; assay type: cell-based; conditions: 1 hour at 37° C., 10 nM Zn2+ and C-peptide in DMEM containing serum
Procedure: Additional experiments were performed to determine whether a C-peptide facilitator can facilitate binding of C-peptide to cells expressing Glut1 other than RBCs. Endothelial cells (bovine pulmonary artery endothelial cells) were grown to confluency on 12-well tissue culture plates. When the cell reached confluency, they were incubated in Dulbecco's Modified Eagle Medium (DMEM) containing serum for 24 hours. Following incubation, the cells were washed and incubated for 1 hour at 37° C. in the presence of 10 nM Zn^2+ and C-peptide in DMEM containing serum. The endothelial cells were determined to have bound 2.0±0.1 attomoles of C-peptide per endothelial cell.

C-peptide bound to the RBCs (RBCs [1]): 3.1 and 2.8 and below 2.45 | average C-peptide bound to the RBCs (RBCs [2]; MS patients): 3.51 ± 0.59 pmol | average C-peptide bound to the RBCs (RBCs [2]; OND patients): 2.23 ± 0.51 pmol | C-peptide binding (RBCs [2]; healthy blood stored in citrate tubes at 4° C., day 1): 2.38 pmol | C-peptide binding (RBCs [2]; healthy blood stored in citrate tubes at 4° C., day 2): 2.23 pmol | C-peptide binding (RBCs [2]; healthy blood stored in citrate tubes at 4° C., day 3): 2.14 pmol | C-peptide binding (RBCs [2]; healthy blood stored in citrate tubes at 4° C., day 4): 1.83 pmol | C-peptide binding (RBCs [2]; healthy blood, supernatant stored at 4° C., day 1): 2.23 pmol | C-peptide binding (RBCs [2]; healthy blood, supernatant stored at 4° C., day 2): 2.17 pmol | C-peptide binding (RBCs [2]; healthy blood, supernatant stored at 4° C., day 3): 2.20 pmol | C-peptide binding (RBCs [2]; healthy blood, supernatant stored at −20° C., week 0 (day of draw)): 2.45 pmol | C-peptide binding (RBCs [2]; healthy blood, supernatant stored at −20° C., week 1): 2.48 pmol | C-peptide binding (RBCs [2]; healthy blood, supernatant stored at −20° C., week 3): 2.30 pmol | C-peptide binding (RBCs [2]; healthy blood, supernatant stored at −20° C., week 6): 2.34 pmol | average C-peptide bound to the RBCs (RBCs [2]; healthy controls): 1.99 ± 0.32 pmol | C-peptide binding (RBCs [2]; healthy individuals that do not have MS): about 1500 C-peptide molecules per cell | C-peptide binding by RBCs, Control (RBCs [2]; hematocrit 3.50%): 1.18 pmol | C-peptide binding by RBCs, MS (RBCs [2]; hematocrit 3.50%): 1.63 pmol | C-peptide binding by RBCs, Control (RBCs [2]; hematocrit 7%): 2.18 pmol | C-peptide binding by RBCs, MS (RBCs [2]; hematocrit 7%): 3.38 pmol | C-peptide binding by RBCs, Control (RBCs [2]; hematocrit 14%): 4.78 pmol | C-peptide binding by RBCs, MS (RBCs [2]; hematocrit 14%): 6.25 pmol
Substance: C-peptide (EAEDLQVGQVELGGGPGAGSLQPLALEGSLQ; listed as Homo sapiens) [approximately 30 amino acid polypeptide that connects the A and B chain of mature insulin within the proinsulin molecule]
C-peptide bound [3]: 2.68 attomoles of C-peptide per neutrophil | C-peptide bound [4]: 2.0±0.1 attomoles of C-peptide per endothelial cell
